Measured values published in patent US6982260B1, “Quinazolines and their use for inhibiting cyclin-dependent kinase enzymes” (Warner-Lambert Company, priority 1999, dated 2006).
Where two headings read alike, the source gives them in different places.

How the values were obtained:
[1] = tested on: neointima formation; settings: intraluminal exposure of a denuded rat carotid artery; cited from earlier work
[2] = biological target: cdc2/cyclinB (Homo sapiens, UniProt P06493); experiment: cdc2/cyclinB kinase assay (Table 1, CdkB); format: biochemical; settings: 32P incorporation into retinoblastoma, 25° C., 15 minutes
Chain of cdc2/cyclinB (P06493 whole entry, species assumed): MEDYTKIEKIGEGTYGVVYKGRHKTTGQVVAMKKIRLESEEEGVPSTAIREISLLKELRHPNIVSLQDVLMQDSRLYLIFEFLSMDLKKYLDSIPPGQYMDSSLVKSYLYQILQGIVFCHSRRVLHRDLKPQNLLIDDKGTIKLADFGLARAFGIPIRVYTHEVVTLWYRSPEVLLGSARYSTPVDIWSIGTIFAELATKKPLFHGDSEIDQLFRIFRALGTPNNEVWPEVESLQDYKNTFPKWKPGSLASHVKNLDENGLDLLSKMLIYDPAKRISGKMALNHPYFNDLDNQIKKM
Chain of cdc2/cyclinB (P14635 whole entry partner, species assumed): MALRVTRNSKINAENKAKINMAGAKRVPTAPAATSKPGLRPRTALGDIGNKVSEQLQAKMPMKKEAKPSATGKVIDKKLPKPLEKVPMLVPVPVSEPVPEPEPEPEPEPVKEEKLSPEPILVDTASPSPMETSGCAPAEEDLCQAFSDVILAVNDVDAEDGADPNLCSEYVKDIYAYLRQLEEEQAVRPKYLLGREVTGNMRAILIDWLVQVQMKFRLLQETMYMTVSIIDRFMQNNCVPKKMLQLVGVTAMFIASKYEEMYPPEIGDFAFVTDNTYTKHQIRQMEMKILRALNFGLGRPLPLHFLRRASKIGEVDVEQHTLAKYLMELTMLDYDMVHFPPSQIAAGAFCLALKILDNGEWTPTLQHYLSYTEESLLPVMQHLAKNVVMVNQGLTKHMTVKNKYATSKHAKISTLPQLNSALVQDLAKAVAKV
Procedure: (§1) All components except the ATP were added to the wells, and the plate was placed on a plate mixer for 2 minutes. The reaction was begun by addition of [^32P]ATP, and the plate was incubated at 25° C. for 15 minutes. The reaction was terminated by addition of 0.1 mL of 20% TCA. The plate was kept at 4° C. for at least 1 hour to allow the substrate to precipitate. The wells were then washed five times with 0.2 mL of 10% TCA and ^32P incorporation determined with a beta plate counter (Wallac Inc., Gaithersburg, Md.).

[3] = biological target: cdk2/A (Homo sapiens, UniProt P24941); experiment: cdk2/A kinase assay; format: biochemical; settings: 32P incorporation into retinoblastoma, 25° C., 15 minutes; read-out: Cdk2A IC50
Procedure: as §1

[4] = biological target: cdk2/cyclinE (Homo sapiens, UniProt P24941); experiment: cdk2/cyclinE kinase assay; format: biochemical; settings: 32P incorporation into retinoblastoma, 25° C., 15 minutes; read-out: Cdk2E IC50
Procedure: as §1

[5] = biological target: cdk4/D (Homo sapiens, UniProt P11802); experiment: Cyclin-Dependent Kinase 4 (cdk4) Assay; format: biochemical
Chain of cdk4/D (P11802 whole entry, species assumed): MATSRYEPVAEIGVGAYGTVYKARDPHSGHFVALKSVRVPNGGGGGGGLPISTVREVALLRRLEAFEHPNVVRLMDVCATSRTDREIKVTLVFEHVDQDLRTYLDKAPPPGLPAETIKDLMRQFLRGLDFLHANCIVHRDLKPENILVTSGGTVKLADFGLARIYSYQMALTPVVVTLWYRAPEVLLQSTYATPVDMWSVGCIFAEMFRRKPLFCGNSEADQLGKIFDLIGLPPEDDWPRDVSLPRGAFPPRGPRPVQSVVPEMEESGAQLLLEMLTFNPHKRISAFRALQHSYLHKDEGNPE
Chain of cdk4/D (P24385 whole entry partner, species assumed): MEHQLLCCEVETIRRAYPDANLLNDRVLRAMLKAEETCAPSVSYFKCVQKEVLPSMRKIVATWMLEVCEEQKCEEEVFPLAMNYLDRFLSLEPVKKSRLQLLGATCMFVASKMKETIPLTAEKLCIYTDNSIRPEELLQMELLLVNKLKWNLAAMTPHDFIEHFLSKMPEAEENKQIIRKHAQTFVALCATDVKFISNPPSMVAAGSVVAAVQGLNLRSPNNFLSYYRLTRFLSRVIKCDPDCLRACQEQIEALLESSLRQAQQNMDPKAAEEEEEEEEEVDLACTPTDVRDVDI
Procedure: As noted above, the compounds of this invention are potent inhibitors of cyclin-dependent kinases, and accordingly, are useful in treating and preventing neurodegenerative disorders, atherosclerosis, and other cell proliferative disorders like cancer. […] A typical assay, for instance, measures inhibitory activity against the cyclin D dependent kinase 4 enzyme (cdk4/D). […] The cdk4 assay was carried out as follows.
Cyclin-Dependent Kinase 4 (cdk4) Assay
Enzyme assays for IC50 determinations (Table 1 above) and kinetic evaluation were performed in 96 well filter plates (Millipore MADVN6550). The total volume was 0.1 mL containing a final concentration of 20 mM TRIS (tris[hydroxymethyl]aminomethane), at pH 7.4, 50 mM NaCl, 1 mM dithiothreitol, 10 mM MgCl2, 25 μM ATP containing 0.25 μCi of [^32P]ATP, 20 ng of cdk4, 1 μg of retinoblastoma, and appropriate dilutions of a compound of the present invention. All components except the ATP were added to the wells, and the plate was placed on a plate mixer for 2 minutes. The reaction was started by adding [^32P]ATP and the plate was incubated at 25° C. for 15 minutes. The reaction was terminated by addition of 0.1 mL of 20% trichloroacetic acid (TCA). The plate was kept at 4° C. for at least 1 hour to allow the substrate to precipitate. The wells were then washed five times with 0.2 mL of 10% TCA and ^32P incorporation was determined with a beta plate counter (Wallac Inc., Gaithersburg, Md.).

[6] = tested on: herpes simplex virus (HSV); settings: cited from earlier work
[7] = 25 μM ATP, retinoblastoma substrate, 25° C., 15 minutes, read-out: Cdk4 IC50

| IC50 [2] | IC50 [3] | IC50 [4] | IC50 [5, 7] | melting point | SMILES | inhibition of neointima formation [1] | IC50 [5] | HSV replication [6] |
| --- | --- | --- | --- | --- | --- | --- | --- | --- |
|  |  |  |  |  | COc1ccc(CNc2nc(N(CCO)CCO)nc3c2ncn3C(C)C)cc1 [CVT-313] | greater than 80% |  |  |
| 1.2 µM | 0.246 µM | 1.2 µM | 1.5 µM | 169 to 171 °C | COc1ccc2cnc(Nc3ccc(F)c(C)c3)nc2c1C(C)C [Example 46, (4-Fluoro-3-methyl-phenyl)-(8-isopropyl-7-methoxy-quinazolin-2-yl)-amine] |  |  |  |
| 1.17 µM | 0.574 µM | 2.2 µM | 2.4 µM | 208 to 209 °C | COc1ccc2cnc(Nc3ccc(F)c(C)c3)nc2c1C1CCCC1 [Example 48, (8-Cyclopentyl-7-methoxy-quinazolin-2-yl)-(4-fluoro-3-methyl-phenyl)-amine] |  |  |  |
|  |  |  |  |  | CC[C@H](CO)Nc1nc(NCc2ccccc2)c2ncn(C(C)C)c2n1 [roscovitine] |  |  | inhibited |

| SMILES | IC50 [2] | IC50 [3] | IC50 [4] | IC50 [5, 7] | melting point | inhibition of neointima formation [1] | IC50 [5] | HSV replication [6] |
| --- | --- | --- | --- | --- | --- | --- | --- | --- |
| COc1ccc2cnc(Nc3ccc(N4CCNCC4)c(F)c3)nc2c1C1CCCC1 [Example 50, (8-Cyclopentyl-7-methoxy-quinazolin-2-yl)-(3-fluoro-4-piperazin-1-yl-phenyl)-amine] | 0.214 µM | 0.062 µM | 0.3 µM |  | 228 to 229 °C |  | 0.004 µM |  |
